This is an account of results in BindingDB's records for PubMed 10347254 (R. W. Johnson Pharmaceutical Research Institute, 1999).

Chain of Histamine H3 receptor (Q9Y5N1 whole entry): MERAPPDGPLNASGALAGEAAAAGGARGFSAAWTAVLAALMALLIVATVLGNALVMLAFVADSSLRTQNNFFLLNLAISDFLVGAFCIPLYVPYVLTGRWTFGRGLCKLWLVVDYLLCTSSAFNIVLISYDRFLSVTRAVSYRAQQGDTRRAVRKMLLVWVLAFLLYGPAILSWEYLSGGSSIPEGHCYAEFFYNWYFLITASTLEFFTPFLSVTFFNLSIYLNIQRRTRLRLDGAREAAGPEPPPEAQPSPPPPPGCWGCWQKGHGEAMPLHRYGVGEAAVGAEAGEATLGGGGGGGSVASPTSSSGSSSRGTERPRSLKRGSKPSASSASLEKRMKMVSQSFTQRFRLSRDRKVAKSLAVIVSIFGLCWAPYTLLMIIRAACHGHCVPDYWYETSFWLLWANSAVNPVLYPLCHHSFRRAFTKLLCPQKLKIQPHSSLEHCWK

The test addresses Histamine H3 receptor (Homo sapiens, UniProt Q9Y5N1).
Broadly, the Ki is the equilibrium dissociation constant of an inhibitor or competing ligand from its target. Read a high Ki as weaker binding. Compound `COc1ccc(CN(CCN(C)C)c2ccccn2)cc1` showed a Ki of more than 10 µM.
The same measure for `c1c[nH]cn1`: more than 10 µM; for `N=C(N)SCCc1cnc[nH]1` [2-(3H-imidazol-4-yl)ethylsulfanylmethanimidamide]: more than 10 µM.
The same measure for `CNCCc1c[nH]cn1` [N(alpha)-Methylhistamine]: more than 10 µM.
For the compound `c1nc(CC2CCNCC2)c[nH]1` [4-(1H-imidazol-4-ylmethyl)piperidine], the Ki is more than 10 µM.
The same measure for `CN/C([CH-][N+](=O)[O-])=[NH+]\CCSCc1ccc(CN(C)C)o1`: more than 10 µM.
